Reference: US20100304998A1, “Chemical Proteomic Assay for Optimizing Drug Binding to Target Proteins” (MARQUETTE UNIVERSITY, priority 2009, published 2010)

Assays:
[1] = target: T1, glutamate dehydrogenase (GDH) (Bos taurus, UniProt P00366); assay: 1H NMR STD (saturation transfer difference) binding assay, GDH; set-up: species or system bovine
T1 construct: Glutamate dehydrogenase (bovine liver, GDH); purchased Sigma Aldrich; host or cells: bovine liver
Protocol: (§1) ^1H NMR STD (saturation transfer difference) spectra for CRAA binding to either malate dehydrogenase (MDH) (FIG. 13A) or glutamate dehydrogenase (FIG. 13B) establishes that the CRAA scaffold binds proteins that were identified using the proteomic assay, thereby validing the method for identifying non-target proteins. Glutamate dehydrogenase (bovine liver, GDH) and malate dehydrogenase (porcine heart) were from Sigma Aldrich. Both experiments were performed on a 600 MHz Varian NMR system at 25° C. using the cyclonecyclnoe pulse sequence (a steady state NOE experiment) with 256 scans. On and off resonance irradiations were at 0.5 and −11 ppm respectively, performed for 4 seconds each. […] (See FIG. 13). In both cases, CRAA was present at 3 mM and the binding study was done in a 25 mM phosphate buffer at pH 7.6 with 250 ug GDH or 166 ug MDH in a total volume of 0.6 mLs. The use of STD assays in functional proteomic binding studies has been described (Yao and Sem, FEBS Lett. (2005) 579, 661-666, the content of which is incorporated herein by reference in its entirety). To verify that binding had occurred in the cofactor binding site, competition studies were also performed (not shown). Addition of 1 mM NADH to the MDH sample caused a decrease in STD signal for CRAA (3 mM) of 35%. The analogous competition with GDH (using NADP+ as competitor) produced no change in STD signal for CRAA—which might be due to higher affinity for CRAA than to NADP+. To test this hypothesis, the competition was reversed where 3 mM NADP+ STD signal was monitored before and after adding CRAA (1 mM). A decrease in the NADP+ STD signal of 50% was now observed, due to CRAA addition.

human liver proteome = assay: CRAA affinity column target fishing with nanospray-LC/MS/MS, human liver proteome; format: binding; settings: elution with free CRAA
[2] = target: T2, malate dehydrogenase (MDH) (Sus scrofa, UniProt P00346); assay: 1H NMR STD (saturation transfer difference) binding assay, MDH; set-up: species or system porcine; settings: CRAA 3 mM
T2 construct: malate dehydrogenase (porcine heart) were from Sigma Aldrich; purchased Sigma Aldrich; host or cells: porcine heart
T2 sequence (P00346 25-338): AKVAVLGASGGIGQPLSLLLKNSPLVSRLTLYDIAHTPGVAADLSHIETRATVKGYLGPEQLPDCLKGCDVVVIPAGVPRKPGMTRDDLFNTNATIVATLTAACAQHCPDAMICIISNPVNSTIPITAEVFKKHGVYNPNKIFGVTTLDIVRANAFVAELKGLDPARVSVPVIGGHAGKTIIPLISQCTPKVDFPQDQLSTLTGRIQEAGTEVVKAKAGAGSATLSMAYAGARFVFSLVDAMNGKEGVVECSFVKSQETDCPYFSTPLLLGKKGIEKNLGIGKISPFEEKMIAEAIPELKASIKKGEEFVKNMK
Protocol: as §1, with “Addition of 1 mM NADH to the MDH sample caused a decrease in STD signal for CRAA (3 mM) of 35%. The analogous competition with GDH (using NADP+ as competitor) produced no change in STD signal for CRAA—which might be due to higher affinity for CRAA than to NADP+.” left out, “A decrease in the NADP+ STD signal of 50% was now observed, due to CRAA addition.” left out

KCNQ potassium channel = settings: cited from earlier work
[3] = tested on: E. coli cells overexpressing DHPR; assay: NHS-CRAA in-cell uptake and labeling study
Protocol: E. coli containing the pET11a DHPR expression construct was inoculated into 30 mL LB culture medium, growing overnight at 37° C., 225 rpm. The next day, 10 mL of this culture was added to two flasks (flasks A and B, each containing 800 mL LB medium with 50 μg/mL carbenicillin). The OD600 was monitored until it reached ˜1.0. To flask A was added 0.8 mL of a 0.4 M IPTG stock to start induction^58. Flask B was used as a control without induction. 5 hours later, cells were collected (centrifuged 10 minutes at 4,000 rpm) and washed once with 100 mM PBS buffer, pH 7.4. The Cells were then suspended in 100 mL of pH 7.4 PBS buffer (8 g NaCl, 0.2 g KCl, 1.44 g Na2HPO4, 0.24 g KH2PO4 in 1.0 L) and incubated for 5 minutes. Then, 1 mL NHS-CRAA ester (2) was added to each flask and incubated at room temperature for about 30 minutes (FIG. 3a). […] The gel was fluorescently imaged on a Kodak Image Station, to selectively detect 1 which has λmax for absorbance and emission at 465 nm and 535 nm^37. Cells were fluorescently imaged in PBS buffer after the wash (before lysis) using 495 nm/520 nm excitation/emission filters on the fluorescence microscope. Complementary fluorescence and bright field images may be shifted slightly relative to each other, because of bacterial motion between image captures. […]

[4] = target: T3, DHPR (dihydrodipicolinate reductase) (Escherichia coli, UniProt P04036); assay: Covalent labeling of purified DHPR with NHS-CRAA, with NADH or PDC competitors (SDS-PAGE); format: binding, E. coli
T3 construct: made in house; host or cells: E. coli (pET11a DHPR expression construct)
T3 sequence (P04036 whole entry): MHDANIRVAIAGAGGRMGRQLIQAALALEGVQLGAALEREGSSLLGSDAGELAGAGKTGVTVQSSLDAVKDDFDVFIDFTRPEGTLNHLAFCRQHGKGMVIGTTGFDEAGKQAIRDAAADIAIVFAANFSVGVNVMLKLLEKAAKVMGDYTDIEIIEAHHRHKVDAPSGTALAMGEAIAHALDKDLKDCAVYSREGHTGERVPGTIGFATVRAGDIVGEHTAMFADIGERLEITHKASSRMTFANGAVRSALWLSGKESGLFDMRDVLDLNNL
Protocol: FIG. 8. SDS-PAGE gel of DHPR that has been labeled with NHS-CRAA active ester, but in the presence of increasing concentrations of either NADH or PDC (2,6-pyridine dicarboxylic acid) competitors, Lane 1, protein standard; Lanes 2-6, increasing NADH ([…]); Lanes 7-10, increasing PDC (1.1, 2.3, 4.5, 9.1 mM).
2 (NHS-CRAA) uptake into E. coli cells and labeling of DHPR. To assess whether 1 (CRAA) can make it across bacterial cell walls, and therefore whether 1 is a viable scaffold for anti-infective drug design efforts, experiments were performed to determine if its N-hydroxysuccinimide ester, 2 (NHS-CRAA; FIG. 2), could enter E. coli and label intracellular DHPR (dihydrodipicolinate reductase). DHPR is an anti-infective drug target, and is known to bind the CRAA scaffold (1)^21. The NHS-CRAA active ester (2)^35 was synthesized as in FIG. 2. The NHS (N-hydroxysuccinimide) group reacts with amines, and since it is attached to the linker position of 1 (where the acetic acid chain is attached), it should reside at the interface of the NADH and substrate binding sites^21 (FIG. 1), near lysine 163^36 (see FIG. 7). Indeed, DHPR is labeled with the NHS-CRAA (2) active ester, based on imaging of an SDS-PAGE gel of labeled protein (FIG. 8). Increasing NADH concentration appears to decrease band intensity while PDC has little effect up to 9 mM. […] Next, to explore whether cell wall penetration occurs, uptake of 2 was measured into E. coli that was expressing E. coli DHPR. Since we have recently shown that the CRAA scaffold (1) is bifunctional, in that it is itself weakly fluorescent^33, protein labeling could be monitored by fluorescence imaging of SDS-PAGE gels of crude cell extracts. […] That there is more labeling in cells expressing DHPR is evident based on the more intense color for cells expressing DHPR (FIG. 3c) and on fluorescence images of the cells (FIG. 3d).

[5] = target: KCNQ1 and minK (KCNE1) potassium channel (Homo sapiens, UniProt P51787); settings: cardiac delayed rectifier potassium channel of heart muscle cells; read-out: KD for block of the KCNQ1/minK (KCNE1) channel; cited from earlier work
KCNQ1 and minK (KCNE1) potassium channel, sequence (P51787 whole entry): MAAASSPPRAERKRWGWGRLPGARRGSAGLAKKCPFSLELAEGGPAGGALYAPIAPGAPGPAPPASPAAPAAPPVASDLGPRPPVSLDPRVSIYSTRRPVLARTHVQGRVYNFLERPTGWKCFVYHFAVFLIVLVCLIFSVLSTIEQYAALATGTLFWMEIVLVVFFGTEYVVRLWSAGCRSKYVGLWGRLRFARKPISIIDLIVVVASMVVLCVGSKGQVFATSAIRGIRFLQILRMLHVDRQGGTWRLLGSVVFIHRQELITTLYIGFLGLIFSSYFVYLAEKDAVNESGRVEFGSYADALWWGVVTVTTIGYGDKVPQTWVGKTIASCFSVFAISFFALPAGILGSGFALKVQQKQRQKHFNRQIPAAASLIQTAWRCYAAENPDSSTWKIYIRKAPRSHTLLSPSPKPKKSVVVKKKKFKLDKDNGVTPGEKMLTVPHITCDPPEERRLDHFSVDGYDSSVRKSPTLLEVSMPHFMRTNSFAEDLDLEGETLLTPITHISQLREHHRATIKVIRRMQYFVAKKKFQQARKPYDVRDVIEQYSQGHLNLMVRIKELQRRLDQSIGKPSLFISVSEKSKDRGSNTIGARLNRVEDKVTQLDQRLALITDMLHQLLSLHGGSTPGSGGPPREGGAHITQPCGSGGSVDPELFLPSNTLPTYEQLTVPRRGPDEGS

ERG potassium channels = settings: ERG channels expressed by neurons; cited from earlier work
[6] = tested on: potassium currents IA, IK, IAHP, IQ, IL; settings: IQ and IL currents; cited from earlier work

T1 sequence (P00366 58-558): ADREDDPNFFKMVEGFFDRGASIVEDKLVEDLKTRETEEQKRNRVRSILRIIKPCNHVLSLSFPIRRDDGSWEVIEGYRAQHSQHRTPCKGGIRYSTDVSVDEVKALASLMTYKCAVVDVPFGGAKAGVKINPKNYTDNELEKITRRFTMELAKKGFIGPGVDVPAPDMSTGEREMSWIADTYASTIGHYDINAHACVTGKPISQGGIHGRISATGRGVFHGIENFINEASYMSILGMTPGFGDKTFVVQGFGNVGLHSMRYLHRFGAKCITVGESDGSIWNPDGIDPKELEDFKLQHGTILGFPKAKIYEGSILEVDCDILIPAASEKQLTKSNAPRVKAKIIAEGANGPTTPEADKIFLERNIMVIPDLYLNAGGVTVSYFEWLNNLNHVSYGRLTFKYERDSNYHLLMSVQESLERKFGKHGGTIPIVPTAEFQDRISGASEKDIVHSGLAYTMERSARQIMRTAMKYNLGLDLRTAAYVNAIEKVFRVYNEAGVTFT

In the case of `O=C(O)CN1C(=O)C(=Cc2ccc(O)c(O)c2)SC1=S` [CRAA, 5-[(3,4-dihydroxyphenyl)methylene]-4-oxo-2-thioxo-3-thiazolidineacetic acid], the “binding to glutamate dehydrogenase by STD difference spectrum” value ([1]; CRAA 3 mM, 250 ug GDH, 25 mM phosphate pH 7.6, 25° C.) is reported as “binds to protein”, the “decrease in the NADP+ STD signal due to CRAA addition” value ([1]; GDH, 3 mM NADP+, CRAA 1 mM) is reported as 50% and the “change in STD signal for CRAA with NADP+ as competitor” value ([1]; GDH, NADP+ competitor) is reported as “no change”. For the same compound, the “share of captured proteins that are NAD(P)(H)-binding proteins” value (human liver proteome) was > 50%, the “binding to malate dehydrogenase by STD difference spectrum” value ([2]; 166 ug MDH, 25 mM phosphate pH 7.6, 25° C.) was “binds to protein” and the “decrease in STD signal for CRAA on addition of NADH” value ([2]; 1 mM NADH competitor, MDH) was 35%.

For `O=C1c2ccccc2C(Cc2ccnc(F)c2)(Cc2ccnc(F)c2)c2ccccc21` [DMP543, 10, 10-Bis[(2-fluoro-4-pyridinyl)methyl]-9(10H)-anthracenone], the “effect on the KCNQ potassium channel” value (KCNQ potassium channel) is listed as “activate”.

With `O=C(CN1C(=O)C(=Cc2ccc(O)c(O)c2)SC1=S)ON1C(=O)CCC1=O` [NHS-CRAA, 5-[(3,4-dihydroxyphenyl)methylene]-4-oxo-2-thioxo-3-thiazolidineacetic N-hydroxysuccinimide ester] the “crossing of the bacterial cell wall” value ([3]; intact E. coli cells overexpressing DHPR) was “can cross the cell wall”, the “labeling of DHPR within intact E. coli cells” value ([3]; intact cells overexpressing DHPR, about 30 minutes, room temperature, fluorescence imaging of SDS-PAGE gel) was “significant labeling” and the “effect of PDC on labeling of DHPR” value ([4]; PDC up to 9 mM) was “little effect”. For the same compound, the “covalent labeling of purified DHPR” value ([4]; imaging of SDS-PAGE gel) was “labeled” and the “effect of NADH on labeling of DHPR” value ([4]; increasing NADH concentration) was “partially blocked”.

For `O=C1c2ccccc2C(Cc2ccncc2)(Cc2ccncc2)c2ccccc21` [XE991], the Kd [5] is listed as 11.1 ± 1.8 µM and the “effect on ERG potassium channels” value (ERG potassium channels) is listed as “binds to and blocks the activity”.

In the case of `O=C1N(c2ccccc2)c2ccccc2C1(Cc1ccncc1)Cc1ccncc1` [linopirdine], the “concentration at which several other potassium currents are blocked” value [6] is listed as “above 10 μM”.
